Source: patent US7655430B2, “Method for analyzing residual agricultural chemical” (priority 2004, dated 2010)

Key:
choline esterase [1] = conditions: background description, no test described; cited from earlier work
choline esterase [2] = experiment: choline esterase inhibition, inhibitory signal from hydrogen peroxide generated (choline esterase/choline oxidase, acetylcholine substrate); assay type: biochemical
Method: In this Example, it was intended to confirm the derivatization of carbosulfan (see FIG. 2). Carbosulfan was converted into carbofuran by adding a reduced glutathione (GSH), to a concentration of 5×10^−5M, and a glutathione-transferase (GST), to a concentration of 0.025 U/mL, to 10 mL of a 0.02M Mes buffer solution (pH 6.0) (2-morpholino-ethane sulfonic acid) containing carbosulfan in a variety of concentrations and then allowing each resulting reaction system to stand over at least 30 minutes.
Then, 10 mL of a solution containing 0.1M phosphate buffer solution (pH 7.6) and 0.2M potassium chloride was added to the foregoing solution which had been allowed to stand, to thus obtain a solution having a volume of 20 mL. […]
After bringing these components into contact with one another by allowing them to stand, acetylcholine was added to a concentration of 2×10^−4M to the foregoing solution and then the amount of hydrogen peroxide generated was determined to thus inspect the solution for the activity to inhibit the choline esterase activity. The same solution free of a carbosulfan was used as a control and this was compared with the solutions, which included carbosulfan in a variety of concentrations, based on the detected inhibitory signals corresponding to the quantities of the resulting hydrogen peroxide. […]

Row | SMILES | ability to inhibit choline esterase (choline esterase [1]) | calibration curve of inhibitory signal (FIG. 3) (choline esterase [2]; after conversion with reduced glutathione (5×10^−5M) and glutathione transferase (0.025 U/mL), at least 30 minutes) | inhibitory activity (inhibitory signal, calibration curve FIG. 3) (choline esterase [2]; reference material free of conversion with reduced glutathione and glutathione transferase)
1 | CNC(=O)Oc1cccc2c1OC(C)(C)C2 [carbofuran] | strong activity of inhibiting choline esterase activity | – | –
2 | CCCCN(CCCC)SN(C)C(=O)Oc1cccc2c1OC(C)(C)C2 [carbosulfan] | – | almost identical to that observed for the reference material of carbofuran | only a weak inhibitory activity
